In article PMC8151276, “An Integrated Approach toward NanoBRET Tracers for Analysis of GPCR Ligand Engagement” (Molecules, 2021):

What was measured:
Format in all cases: binding
[1] = biological target: T1, GRM1 (Homo sapiens, UniProt Q13255); experiment: NanoBRET screen HiBiT-GRM1 in HEK293; conditions: GRM1
T1 construct: purchased Promega (in-house HiBiT-GPCR construct library, NanoBRET)
Experimental: (§1) Each tracer candidate was screened across the entire library of HiBiT-GPCR constructs using NanoBRET as the detection modality. As depicted in Figure 4A, the specificity of interactions was evaluated through decrease in BRET due to competitive displacement of a bound tracer by excess parental compound. Each tracer was analyzed for binding to each HiBiT-GPCR fusion in the absence and in the presence of competing parental compound. Briefly, HEK293 cells were transfected with HiBiT-GPCR constructs diluted into promoterless DNA to reduce expression and maximize translocation to the cell surface. Each tracer candidate was then screened at concentrations of 1 μM and 0.1 μM across cells expressing these fusions. Cells were treated for 1.5 h with tracer either alone or in the presence of 20 μM competing parental compound (i.e., control). BRET was measured upon addition of purified LgBiT and subsequent complementation with HiBiT genetically fused to a GPCR. The specificity of interactions was assessed through a decrease in BRET signal due to competitive displacement of the bound tracer. To further gauge the robustness of these interactions, the fold response over the control (i.e., BRETtracer/BRETcontrol) was calculated. We chose a 1.5-fold response, which translates to ≥7-fold signal over noise as the minimal threshold required to score an interaction as positive. […]. Below we highlight the screening results obtained for our exemplary fluorescent tracers based on Clozapine, Amitriptyline and AZD1283.
(§2) HiBiT-GPCR DNA constructs were diluted in 10 mM Tris pH 8 to a final concentration of 0.01 μg/μL, arrayed in 96-well plates and stored at −20 °C. For transfection, HEK293 cells were suspended in Opti-MEM (without phenol red) supplemented with 2% fetal bovine serum (Seradigm) and 100 units/mL penicillin–streptomycin (Gibco) at a final concentration of 220,000 cells/mL and dispensed into white 96-well plates at 90 μL/well. Subsequent transfections and screens were carried using an Agilent Bravo Automated Liquid Handling Platform. First, the 96-well HiBiT DNA arrays were diluted 25-fold in Opti-MEM (without serum or phenol red) to a final concentration of 0.0004 μg/μL and 20 μL of the diluted DNAs were transferred into new 96-well plates. Next, promoterless carrier DNA (1 μg/μL) was diluted 25-fold (0.04 μg/μL) and then dispensed into the diluted arrays at 20 μL/well. Following brief mixing, Viafect transfection reagent (Promega) diluted 16-fold into Opti-MEM was dispensed into the plates at 40 μL/well. After mixing by pipetting, plates were incubated for 10 min on the pipetting station deck. The DNA-transfection reagent complexes were then added to plates containing cells. To facilitate the screen, 10 μL of DNA-transfection reagent complexes were added in duplicates to the top 4 and bottom 4 rows, resulting in two identical 48-well arrays per plate. Plates with transfected cells were incubated for 18–20 h at 37 °C/5% CO2. A screen of each tracer across the entire library using two different concentrations requires duplicate plates of transfected cells. Depending on the number of tracers being screened, transfections can be scaled up using the same ratios. The next day, for each tracer, four 20× screening solutions in tracer dilution buffer (Promega) were prepared: two duplicates at final concentration of 20 μM and two duplicates at a final concentration of 2 μM. A competing unmodified compound was added to one of each duplicate at a final concentration of 400 μM. The four resulting solutions were diluted 4-fold in Opti-MEM without serum or phenol red to generate 5× solutions (5 µM and 0.5 µM tracer +/− 100 μM competing compound). To screen the library, a BioTek MultiFlo FX liquid dispenser was used to dispense 22.5 µL of tracer solution to the top 4 rows and 22.5 µL tracer + competing compound solution to the 4 bottom rows. Plates were briefly mixed on an orbital shaker and incubated for 1.5 h at room temperature. […]

[2] = biological target: T2, P2RY10 (Homo sapiens, UniProt O00398); experiment: NanoBRET screen HiBiT-P2RY10 in HEK293; conditions: P2RY10
T2 construct: purchased Promega (in-house HiBiT-GPCR construct library, NanoBRET)
T2 sequence (O00398 whole entry, one chain of several): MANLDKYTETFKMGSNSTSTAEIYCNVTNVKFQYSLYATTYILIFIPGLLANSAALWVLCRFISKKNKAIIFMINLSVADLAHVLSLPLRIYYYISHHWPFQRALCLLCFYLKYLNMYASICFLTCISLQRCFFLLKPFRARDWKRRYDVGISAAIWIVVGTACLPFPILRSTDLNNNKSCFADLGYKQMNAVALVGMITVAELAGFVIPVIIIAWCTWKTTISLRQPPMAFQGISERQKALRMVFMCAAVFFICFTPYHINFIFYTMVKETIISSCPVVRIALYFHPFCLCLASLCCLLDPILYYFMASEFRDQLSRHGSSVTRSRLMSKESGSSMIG
Experimental: as §1, §2

[3] = biological target: T3, HTR5A (Homo sapiens, UniProt P47898); experiment: NanoBRET screen HiBiT-HTR5A in HEK293; conditions: HTR5A
T3 construct: purchased Promega (in-house HiBiT-GPCR construct library, NanoBRET)
T3 sequence (P47898 whole entry): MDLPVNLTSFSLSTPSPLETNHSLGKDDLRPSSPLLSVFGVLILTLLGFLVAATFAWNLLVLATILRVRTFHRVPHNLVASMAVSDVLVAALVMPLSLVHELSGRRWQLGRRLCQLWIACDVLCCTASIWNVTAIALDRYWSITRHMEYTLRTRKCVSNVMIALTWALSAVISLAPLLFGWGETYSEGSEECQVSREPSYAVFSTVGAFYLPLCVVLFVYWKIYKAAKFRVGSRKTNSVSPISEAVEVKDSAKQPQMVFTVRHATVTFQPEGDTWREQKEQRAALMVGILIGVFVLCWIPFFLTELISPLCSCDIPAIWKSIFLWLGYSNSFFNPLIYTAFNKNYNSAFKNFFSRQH
Experimental: as §1, §2

[4] = biological target: T4, LGR6 (Homo sapiens, UniProt Q9HBX8); experiment: NanoBRET screen HiBiT-LGR6 in HEK293; conditions: LGR6
T4 construct: purchased Promega (in-house HiBiT-GPCR construct library, NanoBRET)
T4 sequence (Q9HBX8 25-967): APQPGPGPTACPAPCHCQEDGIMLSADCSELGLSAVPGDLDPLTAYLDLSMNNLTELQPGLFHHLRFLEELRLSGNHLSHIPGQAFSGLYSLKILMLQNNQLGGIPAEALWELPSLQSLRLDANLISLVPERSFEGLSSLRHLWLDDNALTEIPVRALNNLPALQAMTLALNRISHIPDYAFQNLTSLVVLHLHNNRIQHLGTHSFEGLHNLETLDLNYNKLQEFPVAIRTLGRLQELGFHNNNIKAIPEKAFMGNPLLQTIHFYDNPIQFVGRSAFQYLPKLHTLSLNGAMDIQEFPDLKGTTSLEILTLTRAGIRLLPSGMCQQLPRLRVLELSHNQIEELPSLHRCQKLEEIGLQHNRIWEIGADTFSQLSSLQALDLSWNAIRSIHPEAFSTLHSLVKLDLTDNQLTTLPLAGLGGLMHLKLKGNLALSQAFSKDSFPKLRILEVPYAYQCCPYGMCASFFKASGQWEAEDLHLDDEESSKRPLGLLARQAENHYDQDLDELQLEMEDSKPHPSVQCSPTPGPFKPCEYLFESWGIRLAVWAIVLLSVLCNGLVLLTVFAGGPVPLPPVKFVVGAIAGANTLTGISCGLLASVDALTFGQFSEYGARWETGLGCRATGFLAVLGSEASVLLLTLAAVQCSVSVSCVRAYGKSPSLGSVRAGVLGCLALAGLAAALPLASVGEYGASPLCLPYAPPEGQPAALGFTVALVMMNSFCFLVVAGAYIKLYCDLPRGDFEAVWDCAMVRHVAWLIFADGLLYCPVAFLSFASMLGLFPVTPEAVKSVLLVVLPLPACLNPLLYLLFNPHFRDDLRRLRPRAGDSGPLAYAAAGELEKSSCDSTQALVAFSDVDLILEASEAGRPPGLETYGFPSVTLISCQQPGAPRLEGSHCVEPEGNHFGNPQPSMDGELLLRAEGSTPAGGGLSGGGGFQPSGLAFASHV
Experimental: as §1, §2

[5] = biological target: T5, MCHR1 (Homo sapiens, UniProt Q99705); experiment: NanoBRET screen HiBiT-MCHR1 in HEK293; conditions: MCHR1
T5 construct: purchased Promega (in-house HiBiT-GPCR construct library, NanoBRET)
T5 sequence (Q99705 whole entry): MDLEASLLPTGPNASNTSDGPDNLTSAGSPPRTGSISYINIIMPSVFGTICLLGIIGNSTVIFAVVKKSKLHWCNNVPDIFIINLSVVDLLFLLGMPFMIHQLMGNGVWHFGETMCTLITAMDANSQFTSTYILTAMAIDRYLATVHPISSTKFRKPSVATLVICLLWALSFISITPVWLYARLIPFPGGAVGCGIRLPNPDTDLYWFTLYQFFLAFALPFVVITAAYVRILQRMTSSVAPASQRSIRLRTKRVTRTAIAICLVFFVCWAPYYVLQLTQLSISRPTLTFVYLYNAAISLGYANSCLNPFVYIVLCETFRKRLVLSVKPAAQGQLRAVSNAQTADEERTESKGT
Experimental: as §1, §2

[6] = biological target: T6, P2RY12 (Homo sapiens, UniProt Q9H244); experiment: NanoBRET screen HiBiT-P2RY12 in HEK293; conditions: P2RY12
T6 construct: purchased Promega (in-house HiBiT-GPCR construct library, NanoBRET)
T6 sequence (Q9H244 whole entry, one chain of several): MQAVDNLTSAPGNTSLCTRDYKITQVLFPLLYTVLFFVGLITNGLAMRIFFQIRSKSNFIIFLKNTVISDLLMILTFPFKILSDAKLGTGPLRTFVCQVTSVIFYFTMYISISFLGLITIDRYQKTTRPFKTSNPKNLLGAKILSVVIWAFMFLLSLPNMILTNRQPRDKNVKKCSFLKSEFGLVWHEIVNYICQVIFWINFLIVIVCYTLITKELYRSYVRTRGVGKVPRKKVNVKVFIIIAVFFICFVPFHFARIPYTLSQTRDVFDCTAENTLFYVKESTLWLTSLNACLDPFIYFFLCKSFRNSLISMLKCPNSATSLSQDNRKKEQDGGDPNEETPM
Experimental: as §1, §2

[7] = biological target: T7, GABBR1 (Homo sapiens, UniProt Q9UBS5); experiment: NanoBRET screen HiBiT-GABBR1 in HEK293; conditions: GABBR1
T7 construct: purchased Promega (in-house HiBiT-GPCR construct library, NanoBRET)
T7 sequence (Q9UBS5 15-961 limits assumed): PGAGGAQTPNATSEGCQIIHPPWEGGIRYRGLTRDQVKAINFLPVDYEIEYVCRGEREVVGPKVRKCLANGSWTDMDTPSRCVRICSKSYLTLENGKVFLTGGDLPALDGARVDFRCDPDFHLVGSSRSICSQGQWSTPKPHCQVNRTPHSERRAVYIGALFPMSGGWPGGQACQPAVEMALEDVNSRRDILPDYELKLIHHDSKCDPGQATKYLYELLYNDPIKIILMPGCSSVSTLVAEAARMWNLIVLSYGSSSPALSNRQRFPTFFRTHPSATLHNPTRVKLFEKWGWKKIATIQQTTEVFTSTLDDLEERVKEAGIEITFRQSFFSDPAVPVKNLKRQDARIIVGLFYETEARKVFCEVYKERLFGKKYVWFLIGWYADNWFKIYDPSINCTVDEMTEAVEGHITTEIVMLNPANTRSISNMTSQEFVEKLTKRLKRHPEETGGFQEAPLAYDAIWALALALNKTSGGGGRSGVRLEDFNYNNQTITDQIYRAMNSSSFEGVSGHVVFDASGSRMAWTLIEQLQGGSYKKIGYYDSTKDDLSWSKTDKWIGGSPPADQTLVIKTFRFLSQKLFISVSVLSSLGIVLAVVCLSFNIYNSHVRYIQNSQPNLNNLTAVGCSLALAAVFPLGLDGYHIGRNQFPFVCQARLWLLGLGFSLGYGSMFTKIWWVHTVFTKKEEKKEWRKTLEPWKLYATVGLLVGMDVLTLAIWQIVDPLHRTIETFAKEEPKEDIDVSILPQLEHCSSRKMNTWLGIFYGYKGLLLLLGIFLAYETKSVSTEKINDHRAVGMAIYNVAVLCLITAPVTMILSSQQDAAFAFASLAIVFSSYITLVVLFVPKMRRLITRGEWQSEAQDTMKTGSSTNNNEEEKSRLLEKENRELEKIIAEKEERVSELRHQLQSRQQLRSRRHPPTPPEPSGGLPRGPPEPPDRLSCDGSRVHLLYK
Experimental: as §1, §2

[8] = biological target: T8, FZD2 (Homo sapiens, UniProt Q14332); experiment: NanoBRET screen HiBiT-FZD2 in HEK293; conditions: FZD2
T8 construct: purchased Promega (in-house HiBiT-GPCR construct library, NanoBRET)
T8 sequence (Q14332 24-565): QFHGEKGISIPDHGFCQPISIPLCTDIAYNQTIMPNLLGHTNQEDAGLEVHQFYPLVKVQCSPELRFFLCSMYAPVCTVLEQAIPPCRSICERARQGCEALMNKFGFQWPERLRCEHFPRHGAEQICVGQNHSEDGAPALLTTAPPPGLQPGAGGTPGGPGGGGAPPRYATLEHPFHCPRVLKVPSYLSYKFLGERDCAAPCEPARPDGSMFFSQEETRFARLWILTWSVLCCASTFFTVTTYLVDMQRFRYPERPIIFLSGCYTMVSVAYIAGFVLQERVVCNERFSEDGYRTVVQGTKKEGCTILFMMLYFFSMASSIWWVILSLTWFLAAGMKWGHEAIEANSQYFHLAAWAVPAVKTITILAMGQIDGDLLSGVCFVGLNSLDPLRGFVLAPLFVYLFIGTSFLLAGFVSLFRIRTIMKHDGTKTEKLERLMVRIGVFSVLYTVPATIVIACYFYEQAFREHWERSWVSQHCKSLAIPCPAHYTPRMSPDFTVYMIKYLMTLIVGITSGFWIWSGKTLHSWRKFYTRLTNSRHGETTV
Experimental: as §1, §2

T1 sequence (Q13255 19-1194): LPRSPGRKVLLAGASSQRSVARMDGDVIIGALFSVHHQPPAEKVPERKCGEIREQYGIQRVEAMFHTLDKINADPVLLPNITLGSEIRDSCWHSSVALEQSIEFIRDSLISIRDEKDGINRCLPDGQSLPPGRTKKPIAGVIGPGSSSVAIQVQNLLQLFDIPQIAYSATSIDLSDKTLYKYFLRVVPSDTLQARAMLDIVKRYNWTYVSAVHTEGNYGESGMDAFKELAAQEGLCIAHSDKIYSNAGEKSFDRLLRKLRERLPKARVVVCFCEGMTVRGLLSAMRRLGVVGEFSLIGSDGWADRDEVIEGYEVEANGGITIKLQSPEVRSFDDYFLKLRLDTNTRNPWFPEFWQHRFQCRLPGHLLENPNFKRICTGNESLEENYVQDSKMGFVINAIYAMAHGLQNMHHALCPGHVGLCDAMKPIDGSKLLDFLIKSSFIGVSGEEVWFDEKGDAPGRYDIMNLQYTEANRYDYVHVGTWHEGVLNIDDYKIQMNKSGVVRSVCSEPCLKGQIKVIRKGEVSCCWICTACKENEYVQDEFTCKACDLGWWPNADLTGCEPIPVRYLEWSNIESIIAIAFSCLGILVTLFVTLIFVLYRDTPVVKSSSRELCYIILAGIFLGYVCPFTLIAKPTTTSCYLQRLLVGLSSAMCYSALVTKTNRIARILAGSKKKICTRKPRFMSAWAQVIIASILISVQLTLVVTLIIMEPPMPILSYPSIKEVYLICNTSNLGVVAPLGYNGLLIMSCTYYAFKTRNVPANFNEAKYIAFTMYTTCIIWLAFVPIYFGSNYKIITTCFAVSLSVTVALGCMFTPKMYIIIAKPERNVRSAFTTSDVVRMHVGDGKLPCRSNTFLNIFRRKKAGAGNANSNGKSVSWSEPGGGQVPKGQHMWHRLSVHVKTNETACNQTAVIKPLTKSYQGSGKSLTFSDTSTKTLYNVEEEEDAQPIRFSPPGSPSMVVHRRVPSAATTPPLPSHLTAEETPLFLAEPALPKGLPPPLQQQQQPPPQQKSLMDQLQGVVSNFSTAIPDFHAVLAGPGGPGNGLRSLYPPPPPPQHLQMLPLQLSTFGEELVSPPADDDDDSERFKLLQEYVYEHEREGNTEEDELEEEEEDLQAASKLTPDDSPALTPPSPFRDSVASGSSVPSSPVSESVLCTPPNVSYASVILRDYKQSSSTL

Row | SMILES | NanoBRET Fold Response ([1]; tracer 0.1μM) | NanoBRET Fold Response ([1]; tracer 1μM) | NanoBRET Fold Response ([2]; tracer 0.1μM) | NanoBRET Fold Response ([2]; tracer 1μM) | NanoBRET Fold Response ([3]; tracer 0.1μM) | NanoBRET Fold Response ([3]; tracer 1μM) | NanoBRET Fold Response ([4]; tracer 0.1μM) | NanoBRET Fold Response ([4]; tracer 1μM) | NanoBRET Fold Response ([5]; tracer 0.1μM) | NanoBRET Fold Response ([5]; tracer 1μM) | NanoBRET Fold Response ([6]; tracer 0.1μM) | NanoBRET Fold Response ([6]; tracer 1μM) | NanoBRET Fold Response ([7]; tracer 0.1μM) | NanoBRET Fold Response ([7]; tracer 1μM) | NanoBRET Fold Response ([8]; tracer 0.1μM) | NanoBRET Fold Response ([8]; tracer 1μM) | other results
1 | O=C(CCc1ccc2n1[B-](F)(F)[N+]1=C(c3ccc[nH]3)C=CC1=C2)NCc1ccc(C(=O)NCCOCCC(=O)N[C@@H]2CC[C@@]3(O)[C@H]4Cc5ccc(O)c6c5[C@@]3(CCN4CC3CC3)[C@H]2O6)cc1 [Naltrexone-3-NB590] | 0.93 | 0.75 | 1.07 | 1.36 | 0.69 | 0.98 | 1.22 | 0.79 | 1.07 | 0.92 | 1.30 | 0.88 | 0.93 | 0.49 | 0.84 | 0.88 | 
2 | Cc1cc2c(s1)Nc1ccccc1N=C2N1CCN(CCCNC(=O)CCOCCOCCOCCOCCNC(=O)CCc2ccc3n2[B-](F)(F)[N+]2=C(c4ccc[nH]4)C=CC2=C3)CC1 [Olanzapine-a-2-NB590] | 0.89 | 1.26 | 0.99 | 1.15 | 1.06 | 1.03 | 1.09 | 1.22 | 1.04 | 1.13 | 0.98 | 0.97 | 0.94 | 1.20 | 0.98 | 0.90 | 
3 | O=C(CCc1ccc2n1[B-](F)(F)[N+]1=C(c3ccc[nH]3)C=CC1=C2)NCc1ccc(C(=O)NCCOCCOCCNCC(O)COc2cccc3ccccc23)cc1 (stereo not drawn) [Propranolol-3-NB590] |  |  |  |  |  |  |  |  |  |  |  |  |  |  |  |  | NanoBRET Fold Response ([1]; 0.1μM): 0.72; NanoBRET Fold Response ([1]; 1μM): 0.69; NanoBRET Fold Response ([2]; 0.1μM): 1.34; NanoBRET Fold Response ([2]; 1μM): 0.95; NanoBRET Fold Response ([3]; 0.1μM): 1.10; NanoBRET Fold Response ([3]; 1μM): 1.03; NanoBRET Fold Response ([4]; 0.1μM): 1.26; NanoBRET Fold Response ([4]; 1μM): 1.01; NanoBRET Fold Response ([5]; 0.1μM): 0.96; NanoBRET Fold Response ([5]; 1μM): 1.03; NanoBRET Fold Response ([6]; 0.1μM): 1.02; NanoBRET Fold Response ([6]; 1μM): 0.94; NanoBRET Fold Response ([7]; 0.1μM): 1.10; NanoBRET Fold Response ([7]; 1μM): 1.05; NanoBRET Fold Response ([8]; 0.1μM): 0.97; NanoBRET Fold Response ([8]; 1μM): 1.01
4 | O=C(CCc1ccc2n1[B-](F)(F)[N+]1=C(c3ccc[nH]3)C=CC1=C2)NCCOCCOCCNC(=O)OCCOCCN1CCN(C2=Nc3ccccc3Sc3ccccc32)CC1 [Quetiapine-a-2-NB590] | 0.74 | 1.00 | 0.94 | 0.95 | 0.96 | 0.99 | 0.93 | 0.96 | 1.04 | 0.84 | 0.99 | 0.92 | 1.22 | 0.93 | 0.96 | 0.89 | 
5 | Cc1nc2n(c(=O)c1CCN1CCC(c3noc4cc(F)ccc34)CC1)CCCC2OC(=O)NCCOCCOCCOCCOCCNC(=O)CCc1ccc2n1[B-](F)(F)[N+]1=C(c3ccc[nH]3)C=CC1=C2 (stereo not drawn) [Risperidone-2-NB590] | 0.97 | 0.84 | 1.14 | 1.14 | 1.03 | 1.28 | 1.04 | 1.02 | 0.94 | 0.97 | 1.05 | 0.95 | 1.09 | 0.87 | 1.01 | 1.03 | 
6 | CC(C)N(CC[C@H](c1ccccc1)c1cc(CCNC(=O)CCOCCOCCOCCOCCNC(=O)CCc2ccc3n2[B-](F)(F)[N+]2=C(c4ccc[nH]4)C=CC2=C3)ccc1O)C(C)C [Tolterodine-2-NB590] | 0.94 | 0.81 | 0.91 | 0.89 | 1.07 | 1.05 | 1.39 | 1.36 | 1.18 | 0.95 | 0.93 | 0.95 | 1.32 | 1.14 | 0.91 | 0.95 | 
